Data taken from paper PMC12022103 (Scientific Reports, 2025).
No end group written: not given here.

Assays:
E. coli ATCC 25922 [1] = experiment: Minimum inhibitory concentration (MIC), broth dilution; type: cell-based, Escherichia coli; conditions: E. coli ATCC 25922; two-fold dilution in MH II broth, 5 × 10^5 CFU/mL, 18–24 h, 37 °C, OD600; triplicate, highest number reported; detection limit <0.5 and >128 µM
Protocol: (§1) The panel of bacterial reference strains used in this work for assessment of synthetic peptide activity originated from the American Type Culture Collection (ATCC) and was obtained from the Diagnostic section at the Department of Microbiology, Oslo University Hospital. The strains used were as follows: E. coli ATCC 25922, K. pneumoniae ATCC 13883, A. baumannii ATCC 17978, S. aureus ATCC 29213, and E. faecalis ATCC 29212.
(§2) Bacterial strains were plated on cation-adjusted Mueller-Hinton (MH II) agar plates and incubated at 37 °C overnight. The day after single colonies were picked and resuspended in sterile-filtered saline (0.9%). The OD of each bacterial suspension was adjusted to McFarland standard 0.5 using a spectrophotometer (UV-1800, Shimadzu), and the suspension further diluted 1:100 in MH II broth, corresponding to 10^6 colony forming units (CFU) per mL. The inoculum suspension was used for MIC, MBC, time-kill and protease stability assessments as described below. To ensure correct inoculum sizes, 10 µL of the bacterial suspensions were diluted 2000-fold in sterile-filtered saline (0.9%) and 100 µL plated onto MH II agar plates. After overnight incubation at 37 °C, colonies were counted. If found to be outside the acceptable number (20–80 colonies per plate corresponding to ∼10^6 CFU/mL), results from further analyses were discarded.
(§3) The peptides were serially diluted (two-fold) directly in 96-well plates (Greiner, MICROPLATE, 96 WELL, PP, U-BOTTOM, NATURAL, 650261) containing MH II broth, corresponding to concentrations in the range 256–0.5 µM. An equal volume of bacterial suspension was added to each well, resulting in a final inoculum of 5 × 10^5 CFU/mL and final peptide concentrations of 128–0.25 µM. The 96-well plates were incubated for 18–24 h at 37 °C, after which the OD of each well was measured at 600 nm in a plate reader (Victor Nivo, Perkin-Elmer). The minimum inhibitory concentration (MIC) was estimated as the lowest concentration of peptide that produced OD600 measurements similar to the control wells containing no bacteria. The experiments were performed in triplicate. Two-fold variations in MIC values were often observed between replicates.

P. aeruginosa [2] = experiment: as above; type: cell-based; conditions: MH II broth, 5 × 10^5 CFU/mL, 18–24 h, 37 °C, OD600; triplicate, highest number reported; detection limit <0.5 and >128 µM
A. baumannii ATCC 17978 [3] = experiment: as above; type: cell-based; conditions: MH II broth, 5 × 10^5 CFU/mL, 18–24 h, 37 °C, OD600, triplicate, highest number reported, detection limit <0.5 and >128 µM
Protocol: as §1, §2, §3

E. faecalis ATCC 29212 [4] = experiment: as above; type: cell-based; conditions: E. faecalis ATCC 29212; MH II broth, 5 × 10^5 CFU/mL, 18–24 h, 37 °C, OD600; triplicate, highest number reported; detection limit <0.5 and >128 µM
Protocol: as §1, §2, §3

K. pneumoniae ATCC 13883 [5] = experiment: as above; type: cell-based; conditions: K. pneumoniae ATCC 13883; MH II broth, 5 × 10^5 CFU/mL, 18–24 h, 37 °C, OD600; triplicate, highest number reported; detection limit <0.5 and >128 µM
Protocol: as §1, §2, §3

S. aureus ATCC 29213 [6] = experiment: as above; type: cell-based; conditions: S. aureus ATCC 29213; MH II broth, 5 × 10^5 CFU/mL, 18–24 h, 37 °C, OD600; triplicate, highest number reported; detection limit <0.5 and >128 µM
Protocol: as §1, §2, §3

E. coli ATCC 25922 [7] = experiment: Minimum bactericidal concentration (MBC); type: cell-based, Escherichia coli; conditions: 5 µL from MIC wells plated on MH II agar, 37 °C overnight, no visible colonies, triplicate, highest number reported, detection limit <0.5 and >128 µM
Protocol: as §1, §2
(§4) In order to assess the minimum bactericidal concentration (MBC) of peptides, 5 µL from each well of the 96-well plate used for MIC analysis was plated onto MH II agar and incubated at 37 °C overnight. […] The experiments were performed in triplicate. Two-fold variations in MIC values were often observed between replicates.

P. aeruginosa [8] = experiment: Minimum bactericidal concentration (MBC); type: cell-based; conditions: 5 µL from MIC wells plated on MH II agar, 37 °C overnight, no visible colonies; triplicate, highest number reported
A. baumannii ATCC 17978 [9] = experiment: Minimum bactericidal concentration (MBC); type: cell-based; conditions: 5 µL from MIC wells plated on MH II agar, 37 °C overnight, no visible colonies, triplicate, highest number reported
Protocol: as §1, §2, §4

E. faecalis ATCC 29212 [10] = experiment: Minimum bactericidal concentration (MBC); type: cell-based; conditions: 5 µL from MIC wells plated on MH II agar, 37 °C overnight, no visible colonies, triplicate, highest number reported
Protocol: as §1, §2, §4

K. pneumoniae ATCC 13883 [11] = experiment: Minimum bactericidal concentration (MBC); type: cell-based; conditions: 5 µL from MIC wells plated on MH II agar, 37 °C overnight, no visible colonies, triplicate, highest number reported
Protocol: as §1, §2, §4

S. aureus ATCC 29213 [12] = experiment: Minimum bactericidal concentration (MBC); type: cell-based; conditions: 5 µL from MIC wells plated on MH II agar, 37 °C overnight, no visible colonies, triplicate, highest number reported
Protocol: as §1, §2, §4

KKKKIIAVLQLILLFL-NH2 [2c-N12]
MIC, E. coli (E. coli ATCC 25922 [1]): > 128 µM
MIC, P. aeruginosa (P. aeruginosa [2]): > 128 µM
MIC, A. baumannii (A. baumannii ATCC 17978 [3]): > 128 µM
MIC, E. faecalis (E. faecalis ATCC 29212 [4]): > 128 µM
MIC, K. pneumoniae (K. pneumoniae ATCC 13883 [5]): > 128 µM
MIC, S. aureus (S. aureus ATCC 29213 [6]): > 128 µM
MBC, E. coli (E. coli ATCC 25922 [7]): > 128 µM
MBC, P. aeruginosa (P. aeruginosa [8]): > 128 µM
MBC, A. baumannii (A. baumannii ATCC 17978 [9]): > 128 µM
MBC, E. faecalis (E. faecalis ATCC 29212 [10]): > 128 µM
MBC, K. pneumoniae (K. pneumoniae ATCC 13883 [11]): > 128 µM
MBC, S. aureus (S. aureus ATCC 29213 [12]): > 128 µM

KKKKKKFVLQLILKLL-NH2 [2h-N12]
MIC, E. coli (E. coli ATCC 25922 [1]): > 128 µM
MIC, P. aeruginosa (P. aeruginosa [2]): > 128 µM
MIC, A. baumannii (A. baumannii ATCC 17978 [3]): > 128 µM
MIC, E. faecalis (E. faecalis ATCC 29212 [4]): > 128 µM
MIC, K. pneumoniae (K. pneumoniae ATCC 13883 [5]): > 128 µM
MIC, S. aureus (S. aureus ATCC 29213 [6]): > 128 µM
MBC, E. coli (E. coli ATCC 25922 [7]): > 128 µM
MBC, P. aeruginosa (P. aeruginosa [8]): > 128 µM
MBC, A. baumannii (A. baumannii ATCC 17978 [9]): > 128 µM
MBC, E. faecalis (E. faecalis ATCC 29212 [10]): > 128 µM
MBC, K. pneumoniae (K. pneumoniae ATCC 13883 [11]): > 128 µM
MBC, S. aureus (S. aureus ATCC 29213 [12]): > 128 µM

RRRRRRFVLRLILRLL-NH2 [2j-N12]
MIC, E. coli (E. coli ATCC 25922 [1]): 64 µM
MIC, P. aeruginosa (P. aeruginosa [2]): 64 µM
MIC, A. baumannii (A. baumannii ATCC 17978 [3]): 64 µM
MIC, E. faecalis (E. faecalis ATCC 29212 [4]): 32 µM
MIC, K. pneumoniae (K. pneumoniae ATCC 13883 [5]): 64 µM
MIC, S. aureus (S. aureus ATCC 29213 [6]): 64 µM
MBC, E. coli (E. coli ATCC 25922 [7]): 128 µM
MBC, P. aeruginosa (P. aeruginosa [8]): 64 µM
MBC, A. baumannii (A. baumannii ATCC 17978 [9]): 64 µM
MBC, E. faecalis (E. faecalis ATCC 29212 [10]): 32 µM
MBC, K. pneumoniae (K. pneumoniae ATCC 13883 [11]): 64 µM
MBC, S. aureus (S. aureus ATCC 29213 [12]): 64 µM

RRRRFVLRLILRLL-NH2 [2i-N12]
MIC, E. coli (E. coli ATCC 25922 [1]): 64 µM
MIC, P. aeruginosa (P. aeruginosa [2]): 64 µM
MIC, A. baumannii (A. baumannii ATCC 17978 [3]): 128 µM
MIC, E. faecalis (E. faecalis ATCC 29212 [4]): 64 µM
MIC, K. pneumoniae (K. pneumoniae ATCC 13883 [5]): 64 µM
MIC, S. aureus (S. aureus ATCC 29213 [6]): 64 µM
MBC, E. coli (E. coli ATCC 25922 [7]): 128 µM
MBC, P. aeruginosa (P. aeruginosa [8]): 128 µM
MBC, A. baumannii (A. baumannii ATCC 17978 [9]): 128 µM
MBC, E. faecalis (E. faecalis ATCC 29212 [10]): 128 µM
MBC, K. pneumoniae (K. pneumoniae ATCC 13883 [11]): 128 µM
MBC, S. aureus (S. aureus ATCC 29213 [12]): 128 µM

KKKKIIIAVLQLILLFL-NH2 [2d-N12]
MIC, E. coli (E. coli ATCC 25922 [1]): > 128 µM
MIC, P. aeruginosa (P. aeruginosa [2]): > 128 µM
MIC, A. baumannii (A. baumannii ATCC 17978 [3]): > 128 µM
MIC, E. faecalis (E. faecalis ATCC 29212 [4]): > 128 µM
MIC, K. pneumoniae (K. pneumoniae ATCC 13883 [5]): > 128 µM
MIC, S. aureus (S. aureus ATCC 29213 [6]): > 128 µM
MBC, E. coli (E. coli ATCC 25922 [7]): > 128 µM
MBC, P. aeruginosa (P. aeruginosa [8]): > 128 µM
MBC, A. baumannii (A. baumannii ATCC 17978 [9]): > 128 µM
MBC, E. faecalis (E. faecalis ATCC 29212 [10]): > 128 µM
MBC, K. pneumoniae (K. pneumoniae ATCC 13883 [11]): > 128 µM
MBC, S. aureus (S. aureus ATCC 29213 [12]): > 128 µM
